We go through three molecules from patent EP3838286B1, “ANTIMICROBIAL PEPTIDE FROM POLISTES GALLICUS VENOM AND ITS ANALOGS” (Latoxan, priority 2019, dated 2021).

In brackets after ≈: the same amount, converted by molar mass. Bounds are passed on as bounds.

In general, MIC refers to the lowest concentration that inhibits growth of the organism. Usually IC50 stands for the concentration that gives 50% inhibition.

For one assay, the system named is E. coli. The assay is described as follows: Antimicrobial tests (MIC, two-fold serial dilution). Format: cell-based, E. coli (ATCC 8739). Particulars: Escherichia coli; Table 3; n=4.
In assay [1] the test system is P. aeruginosa. The assay is described as follows: Antimicrobial tests (MIC/MBC, two-fold serial dilution). The format is cell-based, Pseudomonas aeruginosa (ATCC 9037). Particulars: Pseudomonas aeruginosa; Table 3; n=4.
The next assay relates to S. aureus. The assay is described as follows: Antimicrobial tests (MIC, two-fold serial dilution). The format is cell-based, Staphylococcus aureus (ATCC 6538P). Particulars: Staphylococcus aureus; Table 3; n=4.
A further assay concerns B. subtilis. Described as above. Particulars: Bacillus subtilis; Table 3; n=4. Format: cell-based, Bacillus subtilis (ATCC 6633).
For the next assay, the system named is MDA-MB-231. The assay is described as follows: Antitumor / antiproliferative activity (resazurin). The format is cell-based. Particulars: Homo sapiens, breast cancer cells, 5,000 cells/well, 48 h, read-out: IC50 antiproliferative effect MDA-MB-231. Here is the method:
(§1) Human cancer cell lines (Mia PaCa-2 (CRL-1420), PC-3 (CRL-1435), MDA-MB-231 (HTB-26)) and normal lung fibrobasts (BEAS-2B (ATCC CRL-9609) and IMR-90 (ATCC CCL-186)) were obtained from American Type Culture Collection (ATCC). HUVEC cells were obtained from Sigma Aldrich and were grown in defined all-in-one ready to use endothelial cell growth medium (Sigma Aldrich). Other cells were cultured in Dulbecco's modified Eagle's medium (DMEM, Gibco Life Technologies) supplemented with 10% heat-inactivated fetal calf serum (FCS, Lonza) at 37 °C in an incubator containing 5% CO2. Cells were sub-cultured in new media every 3-4 days. Antiproliferative / antitumor effects of the peptides were measured as previously described (Borie et al., Eur J Med Chem. 2018;148:306-313). Briefly, cells were detached from growing flask using trypsin, cells were counted and seeded in 96 well-plates in the growth media at an initial cell density of 5000 cells/well. Cells were left for 4 h to attach to the wells. Cells were then treated with increasing concentrations of peptides diluted in culture media. After 48 h incubation at 37 °C in a 5% CO2 incubator, wells were emptied and cell number was evaluated using Resazurin based in vitro toxicity assay kit (from Sigma-Aldrich) following manufacturer's instructions. Briefly, Resazurin stock solution was diluted 1:10 in sterile PBS containing calcium and magnesium (PBS, pH 7.4) and empty wells were filled with 100 µL of the diluted solution. After 4 h incubation at 37 °C, fluorescence intensity was measured using microplate reader (Synergy Mx, Biotek) with an excitation wavelength of 530 nm and an emission wavelength of 590 nm. The fluorescence values were normalized by the controls (buffer treated cells) and expressed as per-cent viability. […]
Background: Resazurin is reduced to fluorescent resorufin, in cell work by metabolically active cells.

The subject of a further assay is PC-3. The assay is described as follows: Antitumor / antiproliferative activity (resazurin). The format is cell-based. Particulars: Homo sapiens, prostate cancer cells, 5,000 cells/well, 48 h, read-out: IC50 antiproliferative effect PC-3. On the procedure:
as §1

A further assay has as its system MiaPaCa-2. The assay is described as follows: Antitumor / antiproliferative activity (resazurin). The format is cell-based. Particulars: Homo sapiens, MIA PaCa-2; pancreas cancer cells; 5,000 cells/well; 48 h; read-out: IC50 antiproliferative effect MiaPaCa-2. Here is the method: as §1
Assay [2] deals with P. aeruginosa. The assay is described as follows: Selection for resistant bacteria (serial passaging). Format: cell-based. Particulars: daily exposure at sub-MIC levels, 30 days; antibiotics: after 10 days. On the procedure:
To evaluate if populations of AMP-resistant bacteria could be selected, cultures were continuously exposed to LTX-gallicune-1 (I1N1) and LTX-gallicune-2(R1W8) peptides for a duration of 30 days, as previously described (Oyama et al., 2017 Biofilms Microbiomes, Dec 1;3:33). Briefly, broth microdilution susceptibility testing was performed using a standard doubling-dilution series of gallicune peptides concentrations on day 1. Following incubation of the cultures for 24 h, and determination of the MIC, the well that contained the highest concentration of AMPs permitting growth was diluted 1: 1000 in MH and used to provide the inoculum for the next MIC assay; this process was repeated daily for 30 days.

In the case of `CC1(C)S[C@@H]2[C@H](NC(=O)[C@H](N)c3ccc(O)cc3)C(=O)N2[C@H]1C(=O)O` [Amoxicilline], the MIC is 9 µM (≈ 3.29 µg/mL) in the assay with E. coli, > 100 µM in the assay with P. aeruginosa [1], 0.9 µM (≈ 0.329 µg/mL) in the assay on S. aureus and 0.45 to 0.9 µM (≈ 0.164 to 0.329 µg/mL) in the assay on B. subtilis.
As for `COc1cccc2c1C(=O)c1c(O)c3c(c(O)c1C2=O)C[C@@](O)(C(=O)CO)C[C@@H]3O[C@H]1C[C@H](N)[C@H](O)[C@H](C)O1` [Doxo, Doxorubicine], the IC50 in the assay with MDA-MB-231 is 79.8 nM; in the assay with PC-3, 315 nM; in the assay on MiaPaCa-2, 190 nM.
For `CO/N=C1\CN(c2nc3c(cc2F)c(=O)c(C(=O)O)cn3C2CC2)CC1CN` (centres unmarked) [Gemifloxacin], the “change of MIC against P. aeruginosa on serial passaging (resistance acquisition)” value with P. aeruginosa [2] is “increasing”.
